{
  "source": "patent US20250361217A1",
  "about": "“FATTY ACID COMPOUNDS” (University of Pittsburgh - Of the Commonwealth System of …, priority 2022, published 2025)",
  "type_in_all_cases": "in vivo",
  "key": {"[1]": {"tested_on": "HFD model in C57BL/6J mice", "assay": "Liver histology (H&E) scores of steatosis, ballooning, inflammation in HFD mice", "conditions": "50 mg/kg", "excerpt": "Male C57BL/6J mice were purchased from Jackson Laboratory (Bar Harbor, ME, USA). Mice were acclimated for a week before being randomized to receive either a low-fat diet (LFD) or a high-fat diet (HFD) purchased from Research Diets (New Brunswick, NJ, USA). Obesity was induced by the HFD (D12492, with 60% of the adjusted calories derived from fat) for 16 weeks beginning at age of 8 weeks. Age-matched controls were maintained on a LFD (D12450J, matching the sucrose level of D12492). While maintaining the diet, mice under HFD were divided into 4 groups (n=8 per group) and were treated every 2 days by oral gavage for 7 weeks with 100 μl of 11D3 (50 mg/kg), 11U3 (50 mg/kg), or 11U3-2M (50 mg/kg) formulated in a solution of 2:1 of polyethylene glycol (Fisher Scientific, PEG400 #p167-1) and saline, containing 1.5% of octanoic acid (TCI, #00027). Control groups received 100 μl of PEG400/saline/octanoic acid as the vehicle (Veh). LFD mice were divided into 2 groups (n=8 per group) and treated with veh or 11D3 (50 mg/kg) to detect any effect of natural FuFA in LFD. […] Food intake, water consumption, and mouse weight were monitored every week. […]\nThe fixed Liver tissues embedded in paraffin were cut into 4 μm sections. […] Quantifications and scores of liver steatosis, ballooning, and inflammation were performed blindly by a pathologist based on 3 parameters—steatosis, inflammation, hepatocyte degeneration."}, "[2]": {"tested_on": "HFD model in C57BL/6J mice", "assay": "Glucose tolerance test (GTT) in HFD NAFLD mouse model", "excerpt": "(§1) Male C57BL/6J mice were purchased from Jackson Laboratory (Bar Harbor, ME, USA). Mice were acclimated for a week before being randomized to receive either a low-fat diet (LFD) or a high-fat diet (HFD) purchased from Research Diets (New Brunswick, NJ, USA). Obesity was induced by the HFD (D12492, with 60% of the adjusted calories derived from fat) for 16 weeks beginning at age of 8 weeks. Age-matched controls were maintained on a LFD (D12450J, matching the sucrose level of D12492). While maintaining the diet, mice under HFD were divided into 4 groups (n=8 per group) and were treated every 2 days by oral gavage for 7 weeks with 100 μl of 11D3 (50 mg/kg), 11U3 (50 mg/kg), or 11U3-2M (50 mg/kg) formulated in a solution of 2:1 of polyethylene glycol (Fisher Scientific, PEG400 #p167-1) and saline, containing 1.5% of octanoic acid (TCI, #00027). Control groups received 100 μl of PEG400/saline/octanoic acid as the vehicle (Veh). LFD mice were divided into 2 groups (n=8 per group) and treated with veh or 11D3 (50 mg/kg) to detect any effect of natural FuFA in LFD. Mice were grouped to start at the same weight mean before starting the treatment. During and before gavage treatment, mice were fed ad libitum and given free access to water. Food intake, water consumption, and mouse weight were monitored every week. At 20 weeks (4 weeks of treatment), a glucose tolerance test (GTT) was performed on all cohorts. After 2 weeks of recovery (22 weeks), a whole-body composition was performed using EchoMRI™-100H. At the end of the 23 weeks study, mice were euthanized with isoflurane followed by laparotomy. The blood was collected, and mice were perfused using 0.9% NaCl. Organs were harvested and snap-frozen in liquid nitrogen gas and stored at −80° C. for further analysis. The Cellerusher (Cell Crusher, Schull, Ireland) tissue pulverizer was used to reduce frozen tissues to a fine, easily recoverable powder using dry ice. For immunohistochemistry, the same liver lobe for every mouse was fixed in Formalin 10% (Fisher Chemical, #SF98-4) for 48h, followed by 75% ethanol baths before paraffin embedding.\nGTT was performed on mice fasted for 5h. Mice were injected intraperitoneally with filter-sterilized 1.5 g/kg glucose in 0.9% NaCl. Blood glucose levels were measured using a hand-held glucometer (Accu-Chek Aviva, Roche Diagnostics, Indianapolis, IN, USA) at 0, 20, 40, 60, 90, and 120 min."}, "[3]": {"tested_on": "HFD model in C57BL/6J mice", "assay": "Plasma insulin, metabolic hormones, AST/ALT, TNF-α in HFD mice", "excerpt": "as §1\nAfter collection, red blood cells and plasma were separated by centrifugation for 5 min at 7500 g at 4° C., aliquoted, and stored at −80° C. Insulin levels were measured by ELISA (Invitrogen, #EMINS) using 50 μl of plasma as per the manufacturer's instructions. Aspartate aminotransferase (AST) and alanine aminotransferase (ALT) levels were both measured using 5 μl of plasma with ELISA (Abcam, #ab263882 and #ab282882, respectively). Metabolic hormones were determined using Luminex xMAP technology (Milliplex mouse metabolic hormone expanded panel #MMHE-44K, Millipore, Burlington, MA, USA). The multiplex metabolic hormones plate was measured as per the manufacturer's instructions."}, "[4]": {"tested_on": "HFD model in C57BL/6J mice", "assay": "HPLC-MS analysis of plasma cholesterol, cholesterol-ester and triglycerides in HFD mice", "conditions": "50 mg/kg", "excerpt": "as §1, with “The Cellerusher (Cell Crusher, Schull, Ireland) tissue pulverizer was used to reduce frozen tissues to a fine, easily recoverable powder using dry ice. For immunohistochemistry, the same liver lobe for every mouse was fixed in Formalin 10% (Fisher Chemical, #SF98-4) for 48h, followed by 75% ethanol baths before paraffin embedding.” left out\nPlasma TG were analyzed by HPLC-HR-MS/MS using a C8 Luna column (2×150 mm, 5 μm, Phenomenex) with a flow rate of […] and mobile phases of acetonitrile/water (9:1, v/v) 0.1% ammonium acetate (solvent A) and isopropanol/acetonitrile 0.1% ammonium acetate (7:3, v/v) (solvent B). […]"}},
  "data": [
    {"smiles": "CCCc1ccc(CCCCCCCCCC(C)(C)C(=O)O)o1", "note": "[11U3-2M, 2,2-Dimethyl-11-(5-propylfuran-2-yl)undecanoic acid]", "values": [
      {"measurement": "ballooning degeneration of hepatocytes vs HFD+veh", "setting": "[1]", "result": "significantly alleviated"},
      {"measurement": "liver steatosis vs HFD+veh", "setting": "[1]", "result": "significantly alleviated"},
      {"measurement": "blood glucose clearance measured by GTT compared to veh", "setting": "[2]; 50 mg/kg gavage every 2 days, after 4 weeks of treatment", "result": "significantly improved"},
      {"measurement": "decrease in glucose area under the curve from 0 to 120 min vs veh", "setting": "[2]; 50 mg/kg, 4 weeks", "result": 24, "unit": "%"},
      {"measurement": "fasting blood glucose", "setting": "[2]; 50 mg/kg, 4 weeks", "result": "trend in decreased glucose"},
      {"measurement": "less glucose in GTT vs veh", "setting": "[2]; 20 min time point, 50 mg/kg, 4 weeks", "result": 18, "unit": "%"},
      {"measurement": "less glucose in GTT vs veh", "setting": "[2]; 40 min time point, 50 mg/kg, 4 weeks", "result": 26, "unit": "%"},
      {"measurement": "less glucose in GTT vs veh", "setting": "[2]; 60 min time point, 50 mg/kg, 4 weeks", "result": 22, "unit": "%"},
      {"measurement": "lower insulin plasma level compared to veh (ELISA)", "setting": "[3]; 50 mg/kg", "result": 68, "unit": "%"},
      {"measurement": "plasma level of AST", "setting": "[3]; 50 mg/kg", "result": "significant reduction"},
      {"measurement": "plasma level of TNF-α", "setting": "[3]; 50 mg/kg", "result": "significant reduction"},
      {"measurement": "lower plasma C-peptide 2 compared to veh", "setting": "[3]; 50 mg/kg, milliplex", "result": 43, "unit": "%"},
      {"measurement": "lower plasma gastric inhibitory polypeptide (GIP) compared to veh", "setting": "[3]; 50 mg/kg, milliplex", "result": 36, "unit": "%"},
      {"measurement": "liver enzyme ALT", "setting": "[3]; FIG. 3D legend", "result": "improving liver enzymes (AST and ALT)"},
      {"measurement": "plasma TC compared to HFD+veh", "setting": "[4]", "result": "reduction"},
      {"measurement": "plasma TG reduced vs HFD+veh", "setting": "[4]", "result": 16, "unit": "%"},
      {"measurement": "plasma total cholesterol-ester (TCE) reduced vs HFD+veh", "setting": "[4]", "result": 33, "unit": "%"}
    ]}
  ]
}
